Measurements from patent US8546320B2, “Hsp9O-targeted anti-cancer chimeric peptide” (Kyoto University, priority 2008, dated 2013).
Where a SMILES comes first, the peptide text is derived from it.

How the values were obtained:
cancer cells = assay: Cell viability assay, summary statements on cancer cells; type: cell-based; details: for effect compared with the wild-type protein (summary of mutations): single mutation in TPR or Antp region of Antp-TPR
Caki-1 = type: cell-based, human; details: Caki-1; for Anti-cancer activity (% relative to wild-type peptide) / Decrease in cell survival rate (% relative to wild-type peptide): wild-type peptide = 100%
Procedure: A total of 3×10^3 cells were inoculated per well on a 96 well plate and cultured in a medium containing 10% FBS for 24 hours, and incubated with 100 μl of a peptide having a gradual increase in concentration at 37° C. for 48 to 72 hours. The survival rate of the cells was measured by using WST-8 solution (Cell Count Reagent SF; Nacalai Tesque, Inc.).
(§1) Respective variant peptides were subjected to cell viability assay. Specifically, Caki-1 (American Type Culture Collection (Manassas, Va.) was inoculated in a total amount of 3×10^3 cells per well on a 96 well plate (Nunc™); the cells were cultured in a medium (DMEM (Tesque, Inc.) containing 10% FBS (fetal bovine serum; Biowest)) for 24 hours and incubated with 100 μl of a peptide having a gradual increase in concentration at 37° C. for 48 to 72 hours. The cell survival rate was measured by using WST-8 solution (Cell Count Reagent SF; Nacalai Tesque, Inc.) and compared with that of the wild-type Antp-TPR peptide.
as §1, with “medium” for “medium (DMEM (Tesque, Inc.)”, “FBS” for “FBS (fetal bovine serum; Biowest))”

U937 = assay: cells; type: cell-based, human; details: U937; for Cell Survival Rate (%): concentration not given; for Anti-cancer activity (% relative to wild-type peptide) / Decrease in cell survival rate (% relative to wild-type peptide): wild-type peptide = 100%
Procedure: A total of 3×10^3 cells per well were inoculated onto a 96 well plate, and incubated in a medium containing 10% FBS with 100 μl of a peptide diluted stepwise at 37° C. for 48 to 72 hours. The survival rate of the cells was measured by using WST-8 solution (Cell Count Reagent SF; Nacalai Tesque, Inc.).

Compound	effect compared with the wild-type protein (summary of mutations) (cancer cells)	Anti-cancer activity (% relative to wild-type peptide) (Caki-1) [%]	Decrease in cell survival rate (% relative to wild-type peptide) (Caki-1) [%]	Cell Survival Rate (%) (U937)	Anti-cancer activity (% relative to wild-type peptide) (U937) [%]	Decrease in cell survival rate (% relative to wild-type peptide) (U937) [%]	other results
CC[C@H](C)[C@H](NC(=O)[C@H](CCCCN)NC(=O)[C@@H](NC(=O)[C@H](CCC(N)=O)NC(=O)[C@@H](N)CCCNC(=N)N)[C@@H](C)CC)C(=O)N[C@@H](Cc1c[nH]c2ccccc12)C(=O)N[C@@H](Cc1ccccc1)C(=O)N[C@@H](CCC(N)=O)C(=O)N[C@@H](CC(N)=O)C(=O)N[C@@H](CCCNC(=N)N)C(=O)N[C@@H](CCCNC(=N)N)C(=O)N[C@@H](CCSC)C(=O)N[C@@H](CCCCN)C(=O)N[C@@H](Cc1c[nH]c2ccccc12)C(=O)N[C@@H](CCCCN)C(=O)N[C@@H](CCCCN)C(=O)N[C@@H](CCCCN)C(=O)N[C@@H](C)C(=O)N[C@@H](Cc1ccc(O)cc1)C(=O)N[C@@H](C)C(=O)N[C@@H](C)C(=O)N[C@@H](C)C(=O)NCC(=O)N[C@@H](CC(N)=O)C(=O)N[C@@H](CO)C(=O)N[C@@H](Cc1ccc(O)cc1)C(=O)N[C@@H](Cc1ccccc1)C(=O)N[C@@H](CCCCN)C(=O)O (H-RQIKIWFQNRRMKWKKKAYAAAGNSYFK-OH; N-terminus and C-terminus assumed)							cytotoxic activity / cell-killing effect (cancer cells): the cytotoxic activity was lower
CC[C@H](C)[C@H](NC(=O)[C@H](CCCNC(=N)N)NC(=O)[C@H](C)NC(=O)[C@H](Cc1ccc(O)cc1)NC(=O)[C@H](C)NC(=O)[C@H](CCCCN)NC(=O)[C@H](CCCCN)NC(=O)[C@H](CCCCN)NC(=O)[C@H](Cc1c[nH]c2ccccc12)NC(=O)[C@H](CCCCN)NC(=O)[C@H](CCSC)NC(=O)[C@H](CCCNC(=N)N)NC(=O)[C@H](CCCNC(=N)N)NC(=O)[C@H](CC(N)=O)NC(=O)[C@H](CCC(N)=O)NC(=O)[C@H](Cc1ccccc1)NC(=O)[C@H](Cc1c[nH]c2ccccc12)NC(=O)[C@@H](NC(=O)[C@H](CCCCN)NC(=O)[C@@H](NC(=O)[C@H](CCC(N)=O)NC(=O)[C@@H](N)CCCNC(=N)N)[C@@H](C)CC)[C@@H](C)CC)C(=O)NCC(=O)N[C@@H](CC(N)=O)C(=O)N[C@@H](CO)C(=O)NCC(=O)NCC(=O)NCC(=O)O (H-RQIKIWFQNRRMKWKKKAYARIGNSGGG-OH)							cytotoxic activity / cell-killing effect (cancer cells): the cytotoxic activity was lower
CC[C@H](C)[C@H](NC(=O)[C@H](CCCNC(=N)N)NC(=O)[C@H](C)NC(=O)[C@H](Cc1ccc(O)cc1)NC(=O)[C@H](C)NC(=O)[C@H](CCCCN)NC(=O)[C@H](CCCCN)NC(=O)[C@H](CCCCN)NC(=O)[C@H](Cc1c[nH]c2ccccc12)NC(=O)[C@H](CCCCN)NC(=O)[C@H](CCSC)NC(=O)[C@H](CCCNC(=N)N)NC(=O)[C@H](CCCNC(=N)N)NC(=O)[C@H](CC(N)=O)NC(=O)[C@H](CCC(N)=O)NC(=O)[C@H](Cc1ccccc1)NC(=O)[C@H](Cc1c[nH]c2ccccc12)NC(=O)[C@@H](NC(=O)[C@H](CCCCN)NC(=O)[C@H](CC(C)C)NC(=O)[C@H](CCC(N)=O)NC(=O)[C@@H](N)CCCNC(=N)N)[C@@H](C)CC)C(=O)NCC(=O)N[C@@H](CC(N)=O)C(=O)N[C@@H](CO)C(=O)N[C@@H](Cc1ccc(O)cc1)C(=O)N[C@@H](Cc1ccccc1)C(=O)N[C@@H](CCCCN)C(=O)O [Antp 13L-TPR] (H-RQLKIWFQNRRMKWKKKAYARIGNSYFK-OH; N-terminus and C-terminus assumed)	effective but with an effect lower than the wild-type protein	69.12	27.91				
CC[C@H](C)[C@H](NC(=O)[C@H](CCCNC(=N)N)NC(=O)[C@H](C)NC(=O)[C@H](Cc1ccc(O)cc1)NC(=O)[C@H](C)NC(=O)[C@H](CCCCN)NC(=O)[C@H](CCCCN)NC(=O)[C@H](CCCCN)NC(=O)[C@H](Cc1c[nH]c2ccccc12)NC(=O)[C@H](CCCCN)NC(=O)[C@H](CCSC)NC(=O)[C@H](CCCNC(=N)N)NC(=O)[C@H](CCCNC(=N)N)NC(=O)[C@H](CC(N)=O)NC(=O)[C@H](CCC(N)=O)NC(=O)[C@H](Cc1ccccc1)NC(=O)[C@H](Cc1c[nH]c2ccccc12)NC(=O)[C@H](CC(C)C)NC(=O)[C@H](CCCCN)NC(=O)[C@@H](NC(=O)[C@H](CCC(N)=O)NC(=O)[C@@H](N)CCCNC(=N)N)[C@@H](C)CC)C(=O)NCC(=O)N[C@@H](CC(N)=O)C(=O)N[C@@H](CO)C(=O)N[C@@H](Cc1ccc(O)cc1)C(=O)N[C@@H](Cc1ccccc1)C(=O)N[C@@H](CCCCN)C(=O)O [Antp 15L-TPR] (H-RQIKLWFQNRRMKWKKKAYARIGNSYFK-OH; N-terminus and C-terminus assumed)	effective but with an effect lower than the wild-type protein	73.75	31.29				
CC[C@H](C)[C@H](NC(=O)[C@H](CCCNC(=N)N)NC(=O)[C@H](C)NC(=O)[C@H](Cc1ccc(O)cc1)NC(=O)[C@H](C)NC(=O)[C@H](CCCCN)NC(=O)[C@H](CCCCN)NC(=O)[C@H](CCCCN)NC(=O)[C@H](Cc1c[nH]c2ccccc12)NC(=O)[C@H](CCCCN)NC(=O)[C@H](CCSC)NC(=O)[C@H](CCCNC(=N)N)NC(=O)[C@H](CCCNC(=N)N)NC(=O)[C@H](CC(N)=O)NC(=O)[C@H](CCC(N)=O)NC(=O)[C@H](Cc1ccc(O)cc1)NC(=O)[C@H](Cc1c[nH]c2ccccc12)NC(=O)[C@@H](NC(=O)[C@H](CCCCN)NC(=O)[C@@H](NC(=O)[C@H](CCC(N)=O)NC(=O)[C@@H](N)CCCNC(=N)N)[C@@H](C)CC)[C@@H](C)CC)C(=O)NCC(=O)N[C@@H](CC(N)=O)C(=O)N[C@@H](CO)C(=O)N[C@@H](Cc1ccc(O)cc1)C(=O)N[C@@H](Cc1ccccc1)C(=O)N[C@@H](CCCCN)C(=O)O [Antp F7Y-TPR] (H-RQIKIWYQNRRMKWKKKAYARIGNSYFK-OH; N-terminus and C-terminus assumed)	effective but with an effect lower than the wild-type protein	29.86	14.56				
CC[C@H](C)[C@H](NC(=O)[C@H](CCCNC(=N)N)NC(=O)[C@H](C)NC(=O)[C@H](Cc1ccc(O)cc1)NC(=O)[C@H](C)NC(=O)[C@H](CCCCN)NC(=O)[C@H](C)NC(=O)[C@@H](NC(=O)[C@H](CCC(N)=O)NC(=O)[C@H](CCCNC(=N)N)NC(=O)[C@H](CCCCN)NC(=O)[C@H](CCCCN)NC(=O)[C@H](Cc1c[nH]c2ccccc12)NC(=O)[C@H](CCCCN)NC(=O)[C@H](CCSC)NC(=O)[C@H](CCCNC(=N)N)NC(=O)[C@H](CCCNC(=N)N)NC(=O)[C@H](CC(N)=O)NC(=O)[C@H](CCC(N)=O)NC(=O)[C@H](Cc1ccccc1)NC(=O)[C@H](Cc1c[nH]c2ccccc12)NC(=O)[C@@H](NC(=O)[C@H](CCCCN)NC(=O)[C@@H](NC(=O)[C@H](CCC(N)=O)NC(=O)[C@@H](N)CCCNC(=N)N)[C@@H](C)CC)[C@@H](C)CC)[C@@H](C)CC)C(=O)NCC(=O)N[C@@H](CC(N)=O)C(=O)N[C@@H](CO)C(=O)N[C@@H](Cc1ccc(O)cc1)C(=O)N[C@@H](Cc1ccccc1)C(=O)N[C@@H](CCCCN)C(=O)O [Antp-TPR slong] (H-RQIKIWFQNRRMKWKKRQIAKAYARIGNSYFK-OH; N-terminus and C-terminus assumed)							killing effect compared with the wild-type peptide (Caki-1): retained the effect of wild-type peptide
RQIKIWFQNRRMKWKKKAYAAIGNSYFK (Antp-TPR R5A peptide) [Antp-R5A]	effective but with a lower effect than the wild-type protein			40.24	77.85	57.74	
RQIKIWFQNRRMKWKKKAYARAGNSYFK (Antp-TPR I6A peptide) [Antp-I6A]	effect higher than the wild-type protein			7.48	120.54	310.88	killing effect compared with the wild-type peptide (U937): increase in effect
RQIKIWFQNRRMKWKKKGYGRIGNYYYK (Antp-TPR A2G,A4G,S9Y,F11Y peptide) [Antp-A2G, A4G, S9Y, F11Y]				21.14	102.73	109.90	killing effect compared with the wild-type peptide (U937): increase in effect
RQIKIWFQNRRMKWKKRKFSAAIGYNKY (Antp-scramble peptide) [reference compound]				95.30	6.13	24.39	
